The results in this text go back to PubChem BioAssay (NCI).

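Cultured in 96-well plates, cells were exposed to test compound for 48 hours across five concentrations. At the GI50, growth is halved. At the TGI there is no net growth.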 Where only a bound is given, the exact number is not on record here.

Some test systems named below: DU-145 prostate; HCT-116 colon; HL-60(TB) leukemia; K-562 leukemia; NCI-H226 lung; NCI-H23 lung; PC-3 prostate; SR leukemia; UACC-257 melanoma; UACC-62 melanoma.
Test in all cases: inhibition of tumour cell growth, NCI panel, 48 h

Consider `O=C1c2ccccc2-c2c1c1c(O)cccc1n2CCCc1ccccc1`, for which the GI50 is 28.1 µM in the assay with DU-145 prostate; 5.91 µM with HCT-116 colon; 28.1 µM with HL-60(TB) leukemia; 22.7 µM in the assay with K-562 leukemia; 11.2 µM in the assay on NCI-H226 lung; 18.6 µM in the assay on NCI-H23 lung. Further, the GI50 with PC-3 prostate was 16.2 µM; in the assay on SR leukemia, 4.05 µM; in the assay with UACC-257 melanoma it was 19.7 µM; with UACC-62 melanoma, 22.7 µM. Moreover, the TGI with DU-145 prostate was > 100 µM; in the assay on HCT-116 colon it was > 100 µM; with HL-60(TB) leukemia, > 100 µM; in the assay with K-562 leukemia, > 100 µM; in the assay with NCI-H226 lung, 50.9 µM; in the assay with NCI-H23 lung, > 100 µM. In addition, the TGI was > 100 µM in the assay with PC-3 prostate, > 100 µM with SR leukemia, 50.8 µM with UACC-257 melanoma and > 100 µM with UACC-62 melanoma.

Regarding `Oc1[nH]c2ccc(Cl)cc2c1/C=c1/ccc2c(c1)N=C(c1ccc(C(F)(F)F)cc1)N=2`, the GI50 is 3.12 µM in the assay on DU-145 prostate; 1.98 µM in the assay on HCT-116 colon; 2.61 µM with HL-60(TB) leukemia; 2.6 µM in the assay with K-562 leukemia; 3.13 µM in the assay with NCI-H226 lung; 3.08 µM in the assay with NCI-H23 lung. The GI50 with PC-3 prostate was 2.29 µM; in the assay on SR leukemia, 2.43 µM; in the assay with UACC-257 melanoma, 2.08 µM; in the assay with UACC-62 melanoma, 1.71 µM. Further, the TGI in the assay on DU-145 prostate was 10.4 µM; in the assay with HCT-116 colon, 5.02 µM; with HL-60(TB) leukemia, 5.55 µM; in the assay with K-562 leukemia, 7.73 µM; with NCI-H226 lung it was 11.6 µM; in the assay with NCI-H23 lung it was 13.6 µM. Also, the TGI with PC-3 prostate stood at 7.58 µM; in the assay on SR leukemia, 5.38 µM; with UACC-257 melanoma, 4.93 µM; with UACC-62 melanoma, 4.06 µM.

With `O=S1CCN(Cc2ccc(-c3ccc4ncnc(Nc5ccc(OCc6ccccc6)c(F)c5)c4c3)o2)CC1`, the GI50 in the assay on DU-145 prostate is 4.56 µM; in the assay with HCT-116 colon, 9.96 µM; with HL-60(TB) leukemia it was 8.32 µM; in the assay with K-562 leukemia, 11.9 µM; in the assay with NCI-H226 lung, 5.61 µM; with NCI-H23 lung, 11.3 µM. For the same compound, the GI50 is 9.98 µM with PC-3 prostate, 9.29 µM with SR leukemia, 6.66 µM with UACC-257 melanoma and 5.1 µM in the assay with UACC-62 melanoma. The TGI is > 25 µM in the assay with DU-145 prostate; > 25 µM in the assay on HCT-116 colon; 18.6 µM with HL-60(TB) leukemia; > 25 µM in the assay with K-562 leukemia; 19.2 µM with NCI-H226 lung; > 25 µM in the assay with NCI-H23 lung. Further, the TGI in the assay with PC-3 prostate is > 25 µM; with SR leukemia, > 25 µM; in the assay on UACC-257 melanoma it was > 25 µM; with UACC-62 melanoma, 16 µM.

`[CH3][Sn]([CH3])([CH3])[O]C(=O)C(O)c1ccccc1` (stereo not drawn): the GI50 in the assay on DU-145 prostate is 6.18 µM; in the assay with HCT-116 colon it was 3.58 µM; in the assay with HL-60(TB) leukemia, 4.75 µM; in the assay on K-562 leukemia, 5.27 µM; with NCI-H226 lung it was 16.4 µM; in the assay with NCI-H23 lung, 6.68 µM. Moreover, the GI50 with PC-3 prostate is 2.4 µM; with SR leukemia, 20.7 µM; with UACC-257 melanoma it was 4.25 µM; in the assay with UACC-62 melanoma, 2.11 µM. Further, the TGI in the assay on DU-145 prostate is > 100 µM; in the assay with HCT-116 colon it was 31.6 µM; with HL-60(TB) leukemia it was > 40.5 µM; in the assay on K-562 leukemia, > 100 µM; in the assay with NCI-H226 lung, 94 µM; in the assay with NCI-H23 lung it was 61.8 µM. The TGI was > 100 µM in the assay on PC-3 prostate, > 100 µM in the assay on SR leukemia, > 41.7 µM in the assay with UACC-257 melanoma and 4.49 µM in the assay on UACC-62 melanoma.

For the compound `Cc1cn(C2CC(N=[N+]=[N-])C(CO)O2)c(=O)[nH]c1=O` (stereo not drawn), the TGI with DU-145 prostate is > 1000 µM; in the assay with HCT-116 colon, 422 µM; in the assay on HL-60(TB) leukemia, > 1000 µM; in the assay with K-562 leukemia, > 1000 µM; with NCI-H226 lung, > 1000 µM; in the assay on NCI-H23 lung, > 1000 µM. For the same compound, the TGI in the assay on PC-3 prostate, in the assay on SR leukemia, in the assay on UACC-257 melanoma and in the assay on UACC-62 melanoma was > 1000 µM in each case. Further, the GI50 in the assay on NCI-H226 lung, with NCI-H23 lung and in the assay on UACC-257 melanoma was > 1000 µM each time.

Turning to `O=NNc1ccc(Sc2ccc3ccccc3c2)cn1`, the TGI in the assay with DU-145 prostate is 79.7 µM; in the assay with HCT-116 colon, 40.6 µM; in the assay with HL-60(TB) leukemia, 24.9 µM; with K-562 leukemia, > 100 µM; in the assay on NCI-H226 lung, > 100 µM; in the assay on NCI-H23 lung it was > 100 µM. For the same compound, the TGI in the assay on PC-3 prostate, in the assay on SR leukemia, in the assay on UACC-257 melanoma and in the assay with UACC-62 melanoma was > 100 µM throughout.

Take `COc1cc(-c2ccc(Nc3ccccc3C(=O)O)c(OC)c2)ccc1Nc1ccccc1C(=O)O`: the TGI was 49.9 µM in the assay on DU-145 prostate; 23.6 µM in the assay with HCT-116 colon; 65.8 µM in the assay on HL-60(TB) leukemia; > 100 µM with K-562 leukemia; 60.7 µM in the assay with NCI-H226 lung; 71 µM in the assay on NCI-H23 lung. Also, the TGI in the assay with PC-3 prostate was > 67.4 µM; in the assay on SR leukemia, > 84.6 µM; in the assay with UACC-257 melanoma, > 100 µM; with UACC-62 melanoma, 35.6 µM.
